Measurements: patent publication US10668067B2, “Pyridine sulfonamides” (AMGEN INC., priority 2016, dated 2020)

These compounds were tested against human Nav1.7 (Homo sapiens (Human), UniProt Q15858) (assay: Nav 1.7 In Vitro PX Assay (PatchXpress whole cell voltage clamp)). Settings: in-vitro Nav 1.7 PX data.
Type: cell-based
Protocol: HEK 293 cells stably transfected with human Nav1.7 were recorded in whole cell voltage clamp mode with the PatchXpress automated electrophysiology system (Molecular Devices, LLC, Sunnyvale, Calif.). Compound effects were measured on a partially inactivated state of the sodium channel. Cells were clamped to a holding potential yielding 20 to 50% inactivation. To elicit sodium current, channels were activated by pulsing to −10 mV for 20 msec. This voltage protocol was repeated at a rate of 0.1 Hz throughout the experiment. A single concentration of test compound was applied to cells for a duration of 3 minutes. Peak sodium current was measured at the end of the compound addition period to determine percent inhibition. Three to five cells were tested per concentration, and IC50 curves were fitted to percent inhibition as a function of concentration.

human Nav1.7, sequence (Q15858 whole entry): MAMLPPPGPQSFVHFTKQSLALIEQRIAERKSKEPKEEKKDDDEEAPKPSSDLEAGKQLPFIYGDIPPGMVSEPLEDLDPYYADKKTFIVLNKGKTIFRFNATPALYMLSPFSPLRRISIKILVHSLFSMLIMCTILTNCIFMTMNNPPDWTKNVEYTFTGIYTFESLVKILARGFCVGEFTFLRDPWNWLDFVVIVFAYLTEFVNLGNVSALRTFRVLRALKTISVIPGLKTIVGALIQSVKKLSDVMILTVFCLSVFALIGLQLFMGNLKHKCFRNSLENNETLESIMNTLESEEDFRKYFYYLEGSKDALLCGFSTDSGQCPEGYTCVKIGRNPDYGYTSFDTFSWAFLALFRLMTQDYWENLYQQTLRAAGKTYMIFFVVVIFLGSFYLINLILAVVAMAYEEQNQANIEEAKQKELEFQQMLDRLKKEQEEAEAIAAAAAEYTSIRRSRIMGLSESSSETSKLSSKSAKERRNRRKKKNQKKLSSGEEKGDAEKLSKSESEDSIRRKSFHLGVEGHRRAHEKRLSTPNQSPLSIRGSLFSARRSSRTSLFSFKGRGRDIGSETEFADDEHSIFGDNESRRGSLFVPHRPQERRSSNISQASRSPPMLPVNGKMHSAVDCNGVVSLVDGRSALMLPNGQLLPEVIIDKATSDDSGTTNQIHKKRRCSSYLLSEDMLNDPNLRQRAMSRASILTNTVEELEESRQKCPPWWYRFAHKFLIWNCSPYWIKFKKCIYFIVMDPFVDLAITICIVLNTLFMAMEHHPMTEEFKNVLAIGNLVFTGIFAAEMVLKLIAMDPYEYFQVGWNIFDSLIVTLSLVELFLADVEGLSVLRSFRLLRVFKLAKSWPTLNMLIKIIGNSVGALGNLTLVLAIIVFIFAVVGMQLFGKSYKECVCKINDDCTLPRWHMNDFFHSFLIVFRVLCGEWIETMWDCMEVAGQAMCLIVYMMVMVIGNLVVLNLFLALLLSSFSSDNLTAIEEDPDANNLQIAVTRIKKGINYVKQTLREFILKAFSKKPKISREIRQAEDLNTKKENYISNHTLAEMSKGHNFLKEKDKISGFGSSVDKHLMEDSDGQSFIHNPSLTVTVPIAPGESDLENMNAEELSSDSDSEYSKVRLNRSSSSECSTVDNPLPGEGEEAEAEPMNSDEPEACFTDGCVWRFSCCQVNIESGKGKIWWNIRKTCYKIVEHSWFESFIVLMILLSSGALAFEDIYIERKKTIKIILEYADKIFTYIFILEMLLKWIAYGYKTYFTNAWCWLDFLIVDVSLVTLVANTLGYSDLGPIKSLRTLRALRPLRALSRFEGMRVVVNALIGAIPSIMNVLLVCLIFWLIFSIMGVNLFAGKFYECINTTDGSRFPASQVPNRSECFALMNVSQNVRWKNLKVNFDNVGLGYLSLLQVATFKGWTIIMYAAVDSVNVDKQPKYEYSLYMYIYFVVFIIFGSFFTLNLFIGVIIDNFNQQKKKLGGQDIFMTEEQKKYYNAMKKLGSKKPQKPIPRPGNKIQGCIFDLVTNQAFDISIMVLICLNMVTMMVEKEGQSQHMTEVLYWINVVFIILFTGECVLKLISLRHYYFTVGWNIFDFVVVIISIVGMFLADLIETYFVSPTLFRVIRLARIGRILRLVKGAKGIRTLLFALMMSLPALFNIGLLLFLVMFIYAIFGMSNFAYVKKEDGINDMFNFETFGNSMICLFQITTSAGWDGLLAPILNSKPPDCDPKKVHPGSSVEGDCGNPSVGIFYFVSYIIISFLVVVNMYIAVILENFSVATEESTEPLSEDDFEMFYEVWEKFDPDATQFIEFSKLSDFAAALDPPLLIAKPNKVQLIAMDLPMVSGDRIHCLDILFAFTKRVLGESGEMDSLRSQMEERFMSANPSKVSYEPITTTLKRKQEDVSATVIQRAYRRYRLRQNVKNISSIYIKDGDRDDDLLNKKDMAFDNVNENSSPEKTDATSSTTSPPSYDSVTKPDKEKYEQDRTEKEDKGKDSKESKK

Q: Which IC50 does the source give for CNC(=O)N(c1ccc(S(=O)(=O)Nc2ncccn2)cn1)c1cc(F)c(-c2ccc(Cl)c(C)c2)cc1OC [Example 1-80, 6-((4′-chloro-2-fluoro-5-methoxy-3′-methyl-4-biphenylyl)(methylcarbamoyl)amino)-N-2-pyrimidinyl-3-pyridinesulfonamide] here?
A: The IC50 was 39 nM.

Q: Which IC50 does the source give for CNC(=O)N(c1ccc(S(=O)(=O)Nc2ccon2)cn1)c1cc(-c2cccc(C(F)(F)F)c2)ccc1OC [Example 4-2, N-3-isoxazolyl-6-((4-methoxy-3′-(trifluoromethyl)-3-biphenylyl)(methylcarbamoyl)amino)-3-pyridinesulfonamide] here?
A: The IC50 was 187 nM.

Q: CNC(=O)N(c1ccc(S(=O)(=O)Nc2ccon2)cc1)c1cc(F)c(-c2ccc(F)c(OC(F)(F)F)c2)cc1OC [Example 10, 4-(1-(2,4′-difluoro-5-methoxy-3′-(trifluoromethoxy)-[1,1′-biphenyl]-4-yl)-3-methylureido)-N-(isoxazol-3-yl)benzenesulfonamide] was tested. Which IC50 did it give?
A: Its IC50 is 210 nM.

Q: How did the IC50 turn out when CNC(=O)N(c1ccc(S(=O)(=O)Nc2nocc2C)cn1)c1cc(F)c(-c2ccc(F)c(OCC(F)(F)F)c2)cc1OC [Example 2-14, 6-(1-(2,4′-difluoro-5-methoxy-3′-(2,2,2-trifluoroethoxy)-[1,1′-biphenyl]-4-yl)-3-methylureido)-N-(4-methylisoxazol-3-yl)pyridine-3-sulfonamide] was run?
A: Its IC50 is 621 nM.

Q: With CCCCCCCCCCCCCCc1cc(OC)c(N(C(=O)NC)c2ccc(S(=O)(=O)Nc3ncccn3)cn2)cc1F [Example 2-11, 6-(1-(5-Fluoro-2-methoxy-4-tetradecylphenyl)-3-methylureido)-N-(pyrimidin-2-yl)pyridine-3-sulfonamide] as the compound, how does the IC50 read?
A: Its IC50 is 14 nM.

Q: For CNC(=O)N(c1ccc(S(=O)(=O)Nc2ccon2)cn1)c1cc(F)c(-c2cc(F)cc(Cl)c2)cc1OC [Example 1-5, 6-((3′-chloro-2,5′-difluoro-5-methoxy-4-biphenylyl)(methylcarbamoyl)amino)-N-3-isoxazolyl-3-pyridinesulfonamide], which IC50 is on record?
A: The IC50 was 92 nM.

Q: For CNC(=O)N(c1ccc(S(=O)(=O)Nc2ccon2)cn1)c1cc(Cl)c(-c2ccc(C)c(Cl)c2)cc1OC [Example 1-61, 6-((2,3′-dichloro-5-methoxy-4′-methyl-4-biphenylyl)(methylcarbamoyl)amino)-N-3-isoxazolyl-3-pyridinesulfonamide], which IC50 is on record?
A: Its IC50 is 20 nM.

Q: With CNC(=O)N(c1ccc(S(=O)(=O)Nc2ccon2)cn1)c1cc(Cl)c(-c2cccc(C(F)(F)F)c2)cc1OC [Example 1-31, 6-((2-chloro-5-methoxy-3′-(trifluoromethyl)-4-biphenylyl)(methylcarbamoyl)amino)-N-3-isoxazolyl-3-pyridinesulfonamide] as the compound, how does the IC50 read?
A: Its IC50 is 16 nM.

Q: CNC(=O)N(c1ccc(S(=O)(=O)Nc2ccon2)cn1)c1cc(Cl)c(-c2ccc(C(F)(F)F)c(OC)c2)cc1OC [Example 1-46, 6-((2-chloro-3′,5-dimethoxy-4′-(trifluoromethyl)-4-biphenylyl)(methylcarbamoyl)amino)-N-3-isoxazolyl-3-pyridinesulfonamide] was tested. Which IC50 did it give?
A: Its IC50 is 46 nM.

Q: With CNC(=O)N(c1ccc(S(=O)(=O)Nc2ncccn2)cn1)c1cc(F)c(-c2cc(OC)cc(C(F)(F)F)c2)cc1OC [Example 1-82, 6-((2-fluoro-3′,5-dimethoxy-5′-(trifluoromethyl)-4-biphenylyl)(methylcarbamoyl)amino)-N-2-pyrimidinyl-3-pyridinesulfonamide] as the compound, how does the IC50 read?
A: Its IC50 is 18 nM.

Q: How did the IC50 turn out when CNC(=O)N(c1ccc(S(=O)(=O)Nc2ncccn2)cn1)c1cc(F)c(-c2cc(F)c(F)c(F)c2)cc1OC [Example 1-86, 6-((methylcarbamoyl)(2,3′,4′,5′-tetrafluoro-5-methoxy-4-biphenylyl)amino)-N-2-pyrimidinyl-3-pyridinesulfonamide] was run?
A: The IC50 was 220 nM.

Q: With CNC(=O)N(c1ccc(S(=O)(=O)Nc2cccc(F)n2)cn1)c1cc(Cl)c(-c2ccc(F)c(OCC(F)(F)F)c2)cc1OC [Example 3-3, 6-((2-chloro-4′-fluoro-5-methoxy-3′-(2,2,2-trifluoroethoxy)-4-biphenylyl)(methylcarbamoyl)amino)-N-(6-fluoro-2-pyridinyl)-3-pyridinesulfonamide] as the compound, how does the IC50 read?
A: Its IC50 is 73 nM.
